Laboratory results from PMC5640672, “Molecular mechanism of synergy between the antimicrobial peptides PGLa and magainin 2” (Scientific Reports, 2017).
No end group written: not given here.

Tests used:
[1] = Fluorescence ANTS/DPX vesicle leakage assay in POPC/POPG (3:1); conditions: ANTS/DPX, POPC/POPG (3:1) 100 nm vesicles, P/L about 1:160 per peptide, mixtures 1:1, 10 mM HEPES pH 7.5, 155 mM NaCl, 30 °C, 600 s, % of Triton-X-100 leakage, fluorescence, mean of n = 3
Method: The synergy was also investigated by a fluorescence ANTS/DPX leakage assay[24],[27],[30]. As described in the Methods section, leakage from POPC/POPG (3:1) vesicles was measured for 10 minutes after the addition of vesicles to a peptide solution. Leakage is expressed as percentage of the full leakage, which was obtained after addition of detergent. A synergy factor was defined to describe the enhancement of leakage of the mixture compared to the sum of the extent of leakage for each component. […] In general a synergy factor above 2 indicated synergy. […] In the leakage assay, this pore formation can be studied under more controlled conditions. Here we use two lipid compositions for the vesicles, which are mimicking bacterial membranes.
Leakage of small unilamellar vesicles induced by the peptides was studied using a standard fluorescence assay.
The appropriate lipids for each experiment were dissolved in CHCl3, together with 0.02 mol-% Rhodamine-PE (Rh-PE). […] This stock suspension was subjected to 10 freeze-thaw cycles and then frozen. Appropriate aliquots of the stock lipid suspension were unfrozen each day and extruded (41 times) through polycarbonate membranes with 100 nm pore size, and stored at room temperature overnight. The fluorophore and quencher outside the vesicles were removed by size exclusion chromatography using spin-columns (Pierce centrifuge column, 2 ml, Life Technologies GmbH, Darmstadt, Germany) filled with Sephacryl 100-HR (2 min, 1500 × g). For elution, a 10 mM HEPES buffer (pH 7.5) was used, containing 155 mM NaCl to balance the osmolarity. After extrusion and removal of the external dye and quencher, the lipid concentration usually decreases. Therefore, before each set of measurements a rhodamine spectrum was recorded to determine the actual concentration of lipids, which was referenced to a spectrum taken of vesicles made by sonification without any subsequent treatment.
Fluorescence experiments were performed on a FluoroMax2 spectrofluorimeter (HORIBA Jobin Yvon, Unterhaching, Germany) equipped with a thermostated sample holder and magnetic stirrer, using an excitation wavelength of 355 nm, an emission wavelength of 508 nm, and slit widths of 5 nm. The peptide solutions were placed in elution buffer in a 1 cm standard cuvette at 30 °C. 100 s after the start of the measurement lipid vesicles were added, and the intensity of the fluorescence at 508 nm was recorded. The leakage was measured during 600 s after addition of vesicles, and the measurement was terminated after addition of Triton-X-100 (0.25% v/v), which dissolved the vesicles, and yielded 100% leakage. To determine the background signal of the vesicles themselves, several blanks were recorded per measurement set. From the leakage values of the peptides alone and of the mixture of two peptides a synergy factor SF was calculated:3 SF=L(A+B)/[L(A)+L(B)] […] Measurements were repeated three times and average values and standard deviations calculated for the leakage and the synergy factors. An average SF ≥ 2 was taken to indicate synergy.

[2] = tested on: S. aureus DSM 1104; experiment: Checker-board assay (FICI); type: cell-based, Staphylococcus aureus; conditions: for FICI in combination with MAG2-WT: below 0.5 = synergistic activity
Method: A suitable method to study synergistic antimicrobial activity is the so-called checker-board assay, described in the Methods section. We performed such experiments on one Gram-negative bacterium, E. coli, and one Gram-positive one, S. aureus. From this method a fractional inhibitory concentration index (FICI) is determined, and when this is below 0.5, the peptides are said to have a synergistic effect against bacteria. This is the biologically relevant effect, but we are here interested in the atomistic details of the interactions behind the effect. Therefore we also use biophysical methods.
The antimicrobial activity of the peptides was investigated with a standard MIC assay[87],[88] on one Gram positive (Staphylococcus aureus, DSM 1104, ATCC 25923) and one Gram negative bacterial strain (Escherichia coli, DSM 1103, ATCC 25922). Bacteria were grown in Müller-Hinton medium (MH) at 37 °C and 220 rpm. Overnight cultures were inoculated from a single colony and grown for approximately 16 h. Day cultures were grown for approximately 3 h until they reached the exponential growth phase. These suspensions were diluted with MH-medium to a concentration of 10^6 colony-forming units (CFU) per ml. The microtiter plates (96 wells of 100 µL) were filled with 50 µL of MH, and serial 2-fold dilutions of each peptide were arranged in triplets along the columns. […] Two columns were filled with medium only, to serve as a positive control (bacteria), and as a negative control (no bacteria) to check for contamination of the medium. The bacterial suspension was added in 50 µL aliquots to each well, except for the negative control, to reach a final concentration of 5 × 10^5 CFU/ml. The plates were incubated for 22 h at 37 °C. To each well 20 µL of 0.2 mg/ml Resazurin solution was added and incubated for another two hours. The MIC value was determined visually, as the lowest peptide concentration which inhibited bacterial growth in at least two out of three columns.
To visualize synergy between different peptides, a two-dimensional dilution assay was used[89],[90]. The same bacterial strains were used as in the MIC assay. The procedure of preparing the bacterial suspensions was analogous to the MIC assay, but with a higher final concentration because the volumes in the two setups are different. The main plate (MP) was filled with 40 µl of MH, and serial 2-fold dilutions of the peptide were arranged in each row (8 rows × 7 columns). As described above, the first column was filled with doubly concentrated medium. On another plate (HP, help plate) a second peptide dilution assay was performed, but orthogonal to the main plate. The last row was left empty (7 rows × 8 columns). 40 µL of each well of the HP were transferred to each well of the MP (A1 → A1, etc.). Two columns were filled with medium only, to serve as a positive control (bacteria), and as a negative control (no bacteria) to check for contamination of the medium. The bacterial suspension was added in 20 µL aliquots to each well, except for the negative control, to reach a final concentration of 5 × 10^5 CFU/ml. The plates were incubated for 22 h at 37 °C. To each well 20 µL of 0.1 mg/ml Resazurin solution was added and incubated for another two hours. From these plates, it is possible to determine the MIC value for each of the two peptides, as well as the inhibitory values of the mixtures with 7 × 7 different peptide ratios. From these values, fractional inhibitory concentration indices (FICIs) were calculated with the following formula[89],[91]:1 FICI=[MIC(A)^comb/MIC(A)^alone]+[MIC(B)^comb/MIC(B)^alone] In this formula, MIC(A)^alone is the MIC value determined for peptide A alone, and MIC(A)^comb is the concentration of peptide A at the MIC determined for the combination. The same holds for peptide B. FICI values below 0.5 are taken to indicate a clear synergistic effect, values between 0.5 and 2 an additive effect, and values above 2 an antagonistic effect[89],[92].

[3] = Table S7 series (PGLa-to-MSI mutants)
[4] = Table S3 series (charge mutants)

GMASKIGAIAGKIAKVALKAL-NH2 (also: 15N-labeled Ala10) [PtM-A6I, PGLa single mutant A6I]
Leakage, mean value [1, 3]: 2.0%
FICI in combination with MAG2-WT [2]: below 0.5

KIAGKAGAIAGKIAKVALKAL-NH2 [PtM-a2, PGLa to MSI-103 mutant, three amino acids converted]
Leakage, mean value [1, 3]: 2.4%
FICI in combination with MAG2-WT [2]: below 0.5

GIGKFLHSAKKFGKAFVGKIMNS-NH 2 (GIGKFLHSAKKFGKAFVGKIMNS-NH2) [MAG2-E19K-amide, amidated MAG2 E19K mutant]
Leakage, mean value [1, 4]: 2.9%
FICI in combination with PGLa-WT [2]: above 0.5

GMASKAGKIAGKIAKVALKAL-NH2 (also: 15N-labeled Ala10) [PtM-A8K, PGLa single mutant A8K]
Leakage, mean value [1, 3]: 2.5%
FICI in combination with MAG2-WT [2]: below 0.5

GIGKFLHSAKKFGKAFVGKIMNS-OH [MAG2-E19K, MAG2 charge mutant E19K]
Leakage, mean value [1, 4]: 4.2%
FICI in combination with PGLa-WT [2]: above 0.5

KIAGKIGKIAGKIAKIAGKIA-NH2 [MtP-A7G, MSI-103 to PGLa single mutant A7G]
Leakage, mean value ([1]; Table S11 series (MSI-to-PGLa mutants)): 1.4%
FICI in combination with MAG2-WT [2]: below 0.5

GMASKAGAIAGKIAKIAGKIA-NH2 [PtM-c1, PGLa to MSI-103 mutant, segment C replaced]
Leakage, mean value [1, 3]: 1.4%
FICI in combination with MAG2-WT [2]: below 0.5
